# “And” between values parts separate entries of the source, which are not always exact repeats. Equal values may be shown once.
# Test: solvent given as SMILES
compound,measurement,setting,value
CCCCCCCCCCCCn1nnc(-c2ccc(C#Cc3ccc(C#Cc4ccc(-c5nnn(CCCCCCCCCCCC)n5)cc4)c4nc5c6ccccc6c6ccccc6c5nc34)cc2)n1,fluorescence lifetime,in C1CCOC1,2.54 ns
same,fluorescence lifetime,in Cc1ccccc1,3.55 ns
same,fluorescence lifetime,in ClCCl,4.82 ns
Cc1nc2c(ccc3ccc(O)cc32)oc1=O,fluorescence lifetime,in c1ccccc1,3.9 ns
CCCCOC(=O)c1cc(Oc2ccc(C(C)(C)C)cc2)c2c3c(Cl)cc4c5c(cc(Cl)c(c6c(Oc7ccc(C(C)(C)C)cc7)cc(C(=O)OCCCC)c1c26)c53)C(=O)N(c1c(C(C)C)cccc1C(C)C)C4=O,fluorescence lifetime,in Cc1ccccc1,6.42 ns
O=C1c2ccccc2-c2ccc(N3CCOCC3)c3cccc1c23,fluorescence lifetime,in ClC(Cl)Cl,10.9 ns
COc1cc2cc(/C=C/c3ccc(/C=C/c4ccc(/C=C(\C#N)C(=O)O)cc4)cc3)c(=O)oc2cc1OC,fluorescence lifetime,in CC#N,2.3 ns
COC(=O)c1cc2c(cc3ccc4cccc5ccc2c3c45)[nH]1,fluorescence lifetime,in C1CCOC1,2.29 ns
C#CCn1c2ccccc2c2cc(/C=C/c3cc(C)c4n3[B-](F)(F)[N+]3=C(C)C=C(C)C3=C4c3ccc(I)cc3)ccc21,fluorescence lifetime,in CC#N,4.03 ns
same,fluorescence lifetime,in CS(C)=O,3.64 ns
same,fluorescence lifetime,in ClC(Cl)Cl,3.93 ns
O=c1[nH]c(=O)c2nc3ccccc3nc2[nH]1,fluorescence lifetime,in CC#N,0.35 ns
Cc1cc(C)c(C)c(B(c2c(C)c(C)cc(C)c2C)c2c(C)c(C)c(N3c4ccccc4Oc4ccccc43)c(C)c2C)c1C,fluorescence lifetime,in CC(C)(C)c1ccc(-n2c3ccc([Si](c4ccccc4)(c4ccccc4)c4ccccc4)cc3c3cc([Si](c4ccccc4)(c4ccccc4)c4ccccc4)ccc32)cc1,5.9 ns
CNc1ccc(/C=C/C#N)cc1,fluorescence lifetime,in C1CCCCC1,0.6 ns
same,fluorescence lifetime,in CC#N,0.6 ns
same,fluorescence lifetime,in O,1.13 ns
CC(C)c1cc(C(C)C)c(B2c3ccccc3Oc3cc(-n4c5ccccc5c5ccc6c(c7ccccc7n6-c6ccccc6)c54)ccc32)c(C(C)C)c1,fluorescence lifetime,in CC(C)c1cc(C(C)C)c(-c2ccc(-n3c4ccccc4n4c5ccccc5nc34)nc2)c(C(C)C)c1,29.6 ns
same,fluorescence lifetime,in O=P(c1ccccc1)(c1ccccc1)c1ccccc1Oc1ccccc1P(=O)(c1ccccc1)c1ccccc1,27 ns
O=C1c2ccc(N(c3ccccc3)c3ccccc3)cc2C(=O)c2ccc(N(c3ccccc3)c3ccccc3)cc21,fluorescence lifetime,in Cc1ccccc1,5.3 ns
same,fluorescence lifetime,in c1ccc2c(c1)c1ccccc1n2-c1ccc(-c2ccc(-n3c4ccccc4c4ccccc43)cc2)cc1,4.9 ns
N#Cc1ccc(C#Cc2ccccc2C#N)cc1,fluorescence lifetime,in ClC(Cl)Cl,2.64 ns
N#Cc1c(-n2c3ccccc3c3ccccc32)c(-n2c3ccccc3c3ccccc32)c(-n2c3ccccc3c3ccccc32)c(-n2c3ccc(-c4ccccc4)cc3c3cc(-c4ccccc4)ccc32)c1-n1c2ccccc2c2ccccc21,fluorescence lifetime,in Cc1ccccc1,7 ns
CC(C)(C)c1ccc(-n2c(-c3ccc(N(c4ccc(-c5ccc(N(c6ccc(-c7nc8c9ccccc9c9ccccc9c8n7-c7ccc(C(C)(C)C)cc7)cc6)c6ccc(-c7nc8c9ccccc9c9ccccc9c8n7-c7ccc(C(C)(C)C)cc7)cc6)cc5)cc4)c4ccc(-c5nc6c7ccccc7c7ccccc7c6n5-c5ccc(C(C)(C)C)cc5)cc4)cc3)nc3c4ccccc4c4ccccc4c32)cc1,fluorescence lifetime,in ClCCl,3.8 ns
CC(=O)O[B-]1(OC(C)=O)OC(/C=C/c2ccc(C)cc2)=CC(/C=C/c2ccc(C)cc2)=[O+]1,fluorescence lifetime,in C1CCOC1,1.32 ns
same,fluorescence lifetime,in CC#N,1.23 ns
same,fluorescence lifetime,in CC(C)=O,1.19 ns
same,fluorescence lifetime,in CS(C)=O,1.27 ns
same,fluorescence lifetime,in Cc1ccccc1,1.34 ns
same,fluorescence lifetime,in ClC(Cl)Cl,1.25 ns
same,fluorescence lifetime,in ClCCl,1.26 ns
O=C(O)CCCOc1cc2ccc3cccc4ccc(c1)c2c34,fluorescence lifetime,in CO,59 ns
COC(=O)C(NC(=O)OC(C)(C)C)c1ccc2oc(-c3ccc(OC(=O)c4ccccc4)cc3O)nc2c1 (stereo not drawn),fluorescence lifetime,in CC1CCCCC1,0.64 ns
same,fluorescence lifetime,in CC#N,0.3 ns
same,fluorescence lifetime,in CO,0.027 ns
CC1=N/C(=C\c2ccc(C#N)c(N(C)C)c2)C(=O)N1C,fluorescence lifetime,in C1CCOC1,6.8 ns
same,fluorescence lifetime,in CC#N,3.5 ns
same,fluorescence lifetime,in CCCCCC,16 ns
N#Cc1ccc(-n2cccc2)cc1,fluorescence lifetime,in CC#N,8.2 ns
same,fluorescence lifetime,in CCCCCC,2.42 ns
same,fluorescence lifetime,in CCOCC,3.8 ns
same,fluorescence lifetime,in ClCCl,3.1 ns
C(C#Cc1ccc2ccc3cccc4ccc1c2c34)#Cc1cccc2ccccc12,fluorescence lifetime,in C1CCCCC1,0.8 ns
same,fluorescence lifetime,in CC#N,1.2 ns
same,fluorescence lifetime,in CO,1.1 ns
same,fluorescence lifetime,in ClCCl,1.1 ns
c1ccc(Cn2c3sccc3c3c4nsnc4c4c5ccsc5n(Cc5ccccc5)c4c32)cc1,fluorescence lifetime,in Cc1ccccc1,13.5 ns
same,fluorescence lifetime,in ClCCl,16.2 ns
N#Cc1c(-n2c3ccccc3c3cc(I)ccc32)c(C#N)c(-n2c3ccccc3c3cc(I)ccc32)c(-n2c3ccccc3c3cc(I)ccc32)c1-n1c2ccccc2c2cc(I)ccc21,fluorescence lifetime,in Cc1ccccc1,0.4 ns
Cc1ccc2c(c1)C(c1ccccc1)(c1ccccc1)c1cc(C)ccc1N2c1ccc2c(c1)Oc1ccccc1B2c1c(C(C)C)cc(C(C)C)cc1C(C)C,fluorescence lifetime,in Cc1ccccc1,23 ns
same,fluorescence lifetime,in O=P(c1ccccc1)(c1ccccc1)c1ccc2oc3ccc(P(=O)(c4ccccc4)c4ccccc4)cc3c2c1,28 ns
N#Cc1c(-n2c3ccc(Br)cc3c3cc(Br)ccc32)c(-n2c3ccc(Br)cc3c3cc(Br)ccc32)c(C#N)c(-n2c3ccc(Br)cc3c3cc(Br)ccc32)c1-n1c2ccc(Br)cc2c2cc(Br)ccc21,fluorescence lifetime,in Cc1ccccc1,0.3 ns
COc1ccc(-c2c3cc4ccccc4cc3c(-c3ccc(OC)cc3)c3cc4ccccc4cc23)cc1,fluorescence lifetime,in ClCCl,7.8 ns
O=C(c1ccc(N2c3ccccc3[Si](c3ccccc3)(c3ccccc3)c3ccccc32)cc1)c1ccc(N2c3ccccc3[Si](c3ccccc3)(c3ccccc3)c3ccccc32)cc1,fluorescence lifetime,in c1cc(-n2c3ccccc3c3ccccc32)cc(-n2c3ccccc3c3ccccc32)c1,134 ns
N#Cc1c(-n2c3ccc(Cl)cc3c3cc(Cl)ccc32)c(C#N)c(-n2c3ccc(Cl)cc3c3cc(Cl)ccc32)c(-n2c3ccc(Cl)cc3c3cc(Cl)ccc32)c1-n1c2ccc(Cl)cc2c2cc(Cl)ccc21,fluorescence lifetime,in Cc1ccccc1,0.4 ns
N#Cc1c(-n2c3ccccc3c3cc(I)ccc32)c(-n2c3ccccc3c3cc(I)ccc32)c(C#N)c(-n2c3ccccc3c3cc(I)ccc32)c1-n1c2ccccc2c2cc(I)ccc21,fluorescence lifetime,in Cc1ccccc1,0.3 ns
CCCCCCOc1cc(C=C2C(=O)c3ccccc3C2=O)c(OCCCCCC)cc1C=C1C(=O)c2ccccc2C1=O,fluorescence lifetime,in ClCCl,5.4 ns
N#C/C=C/c1ccc2ccc3cccc4ccc1c2c34,fluorescence lifetime,in C1CCOC1,3.2 ns
same,fluorescence lifetime,in CC#N,3 ns
same,fluorescence lifetime,in CC(C)=O,3.1 ns
CCOC(=O)c1ccccc1-c1c2ccc(=[N+](CC)CC)cc-2oc2c1c(=O)oc1c3c4c(cc12)CCCN4CCC3,fluorescence lifetime,in CCO,0.43 ns
same,fluorescence lifetime,in ClC(Cl)Cl,3.44 ns
same,fluorescence lifetime,in O,0.13 ns
CCN(CC)c1ccc2cc(/C=C3\CCCc4c3[o+]c3cc(N(CC)CC)ccc3c4-c3ccccc3C(=O)O)c(=O)oc2c1,fluorescence lifetime,in ClCCl,0.36 ns
COc1ccc(-c2nc(-c3ccc(-c4nc(-c5ccc(OC)cc5)c(-c5ccc(OC)cc5)[nH]4)cc3)[nH]c2-c2ccc(OC)cc2)cc1,fluorescence lifetime,in CC#N,1.1 ns and 1.24 ns
CCN1\C(=C/C=C/C=C/C2=[N+](CC)c3ccc4ccccc4c3C2(C)C)C(C)(C)c2c1ccc1ccccc21,fluorescence lifetime,in C1CCOC1,1.11 ns
same,fluorescence lifetime,in CC#N,0.85 ns
same,fluorescence lifetime,in CC(C)=O,0.96 ns
same,fluorescence lifetime,in CCO,0.93 ns
same,fluorescence lifetime,in CN(C)C=O,1.19 ns
same,fluorescence lifetime,in CO,0.76 ns
same,fluorescence lifetime,in CS(C)=O,1.31 ns
same,fluorescence lifetime,in ClCCl,1.3 ns
COc1ccc2nc(N)sc2c1,fluorescence lifetime,in CC#N,4.4 ns
same,fluorescence lifetime,in ClCCl,3.86 ns
Cc1ccc(/C2=c3\cc/c(o3)=C(\c3ccc(C)cc3)c3ccc([nH]3)-c3ccc4n3[P-](=O)(=O)[N+]3=C(C=CC3=C4c3cccs3)c3ccc2[nH]3)cc1,fluorescence lifetime,in ClC(Cl)Cl,4.3 ns
Cc1ccc2sc3cc(CCC(=O)O)ccc3c(=O)c2c1,fluorescence lifetime,in CC#N,0.07 ns
same,fluorescence lifetime,in CC(C)O,1.3 ns
same,fluorescence lifetime,in CCO,1.7 ns
same,fluorescence lifetime,in CO,2.55 ns
same,fluorescence lifetime,in OCCO,4.6 ns
CC(=O)[B-]1(C(C)=O)OC(C)=CC(c2ccc3ccccc3c2)=[O+]1,fluorescence lifetime,in CC#N,13.6 ns
same,fluorescence lifetime,in ClC(Cl)(Cl)Cl,1.6 ns
F[B-]1(F)n2c(c3cccc4cccc2c43)=Nc2sc3ccccc3[n+]21,fluorescence lifetime,in ClCCl,6.6 ns

# From the Deep4Chem optical property database
